Literature values, collected in US20100143471A1, “NOVEL REDUCED DOSE PHARMACEUTICAL COMPOSITIONS OF FE[…] PSEUDOEPHEDRINE” (LUPIN LIMITED, priority 2007, published 2010).
Structures can show the parent of a compound that is named as a salt.

Test system: seasonal allergic rhinitis symptoms
Conditions: children aged 6-11 years

SMILES | reduction of seasonal allergic rhinitis symptoms (30 mg bid) | safety and sedation (doses of up to 60 mg bid)
CC(C)(C(=O)O)c1ccc(C(O)CCCN2CCC(C(O)(c3ccccc3)c3ccccc3)CC2)cc1 (centres unmarked) [fexofenadine HCl] | effectively reduces all seasonal allergic rhinitis symptoms | –
CC(C)(C(=O)O)c1ccc(C(O)CCCN2CCC(C(O)(c3ccccc3)c3ccccc3)CC2)cc1 (centres unmarked) [fexofenadine] | – | safe and nonsedating
